Like-named read-outs stand apart in the source and are kept apart here.
Experiments:
U373 glioma cells = experiment: MTT test, overall cell growth, U373; type: cell-based, human; conditions: Homo sapiens, U373 MG, 72 hours of incubation
Method: (§1) MTT tests were performed in order to rapidly, i.e., within 5 days, measure the effect of the present compounds on the overall cell growth. The test measured the number of metabolically active living cells that were able to transform the yellow product 3-(4,5-dimethylthiazol-2-yl)-2,5-diphenyl tetrazolium bromide (herein referred as MTT) into the blue product formazan dye by mitochondrial reduction. The amount of formazan obtained at the end of the experiment, measured by means of a spectrophotometer, is directly proportional to the number of living cells. Optical density determination thus enabled a quantitative measurement of the effect of the investigated compounds as compared to the control condition (untreated cells) and/or to other reference compounds.
(§2) Five human cancer cell lines set forth in Table 3 were used in the MTT tests. These cancer cell lines cover two histological cancer types including glioma (Hs683, T98G, U373), and oesophageal (OE21, OE33) cancers. The U373 cell line is apoptosis-resistant but autophagy-sensitive.
(§3) To perform the assay, cells were allowed to grow in 96-well micro-wells with a flat bottom with an amount of 100 μl of cell suspension per well with 5,000 to 8,000 cells/well depending on the cell type used. Each cell line was seeded in its appropriate culture medium.
(§4) The detailed experimental procedure was as follows: after a 24-hour period of incubation at 37° C., the culture medium was replaced by 100 μl of fresh medium in which the tested compound was previously dissolved, at the following molar concentrations: 1×10^−8 M, 5×10^−8 M, 1×10^−7 M, 5×10^−7 M, 1×10^−6 M, 5×10^−6 M, 1×10^−5 M, 5×10^−5 M and 1×10^−4 M. Each experiment was performed in sestuplicate (6 times).
(§5) After 72 hours of incubation at 37° C. with (experimental conditions) or without (control condition) the compound to be tested, the medium was replaced by 100 μl MTT dissolved in RPMI (1640 without phenol red) at a concentration of 0.5 or 1 mg/ml. The micro-wells were subsequently incubated during 3 hours and a half at 37° C. and centrifuged at 1300 rpm during 10 minutes. MTT was removed and formazan crystals formed were dissolved in […]. The micro-wells were shaken for 5 minutes and read on a spectrophotometer at wavelengths of 570 nm (maximal formazan absorbance).
(§6) For each experimental condition, the mean optical density was calculated, allowing the determination of the percentage of remaining living cells in comparison to the control.
(§7) The origin of all the cell lines we used, along with their biological characteristics, and the validation procedures of the MTT colorimetric assay as employed here are fully detailed in Van Quaquebeke et al., 2005, J Med Chem 48:849-856; Ingrassia et al., 2009, J Med Chem 52:1100-1114; Mathieu et al., 2009, J Cell Mol Med, Feb. 20, 2009.

[1] = test system: human cancer cell lines (U373, T98G, Hs683, OE21, OE33); experiment: MTT test, mean over the cancer cell lines; type: cell-based; conditions: Homo sapiens
Method: as §1, §2, §3, §4, §5, §6, §7

Hs683 glioma cells = experiment: MTT test, overall cell growth, Hs683; type: cell-based, human; conditions: Homo sapiens, Hs 683, 72 hours of incubation
Method: as §1, §2, §3, §4, §5, §6, §7

[2] = test system: OE33 oesophageal cancer cells; experiment: MTT test, overall cell growth, OE33; type: cell-based, human; conditions: Homo sapiens, OE33, 72 hours of incubation
Method: as §1, §2, §3, §4, §5, §6, §7

T98G glioma cells = experiment: MTT test, overall cell growth, T98G; type: cell-based, human; conditions: Homo sapiens, T98G, 72 hours of incubation
Method: as §1, §2, §3, §4, §5, §6, §7

U373 cells = experiment: Cellular imaging (videomicroscopy) of cultured U373 cells: antiproliferative class and global growth ratio; type: cell-based, human; design: key to Anti proliferative class / anti-proliferative class-GGR: class I: actually cytostatic for 3 days (<10% of cell death at the 3rd day); class II: cyctostatic but becomes cytotoxic with <10% cell death on the 2nd day, and >20% of cell death on the 3rd day; class III: cytostatic but rapidly becomes cytotoxic with <10% cell death on the 1st day, >20% of cell death on the 2nd day and >50% of cell death on the 3rd day; class IV: cytotoxic (>50% of cell death on the first day); conditions: for global growth ratio (GGR): GG treated cells/GG control cells, 72 h after drug addition, drug at its IC50 (MTT-test determined); for Anti proliferative class: cellular imaging of cultured U373 cells over three consecutive days
From the text: The effects of the di- and tri-substituted beta-carboline derivatives as described herein can also be determined on cell proliferation, migration and morphology by means of a cellular imaging approach (Debeir et al., Cytometry 60:29-40, 2004; Debeir et al., IEEE Trans Med Imaging 24:697-711, 2005) either in, e.g., the human U373-MG glioma cell line, which is apoptosis-resistant but autophagy-sensitive (Lefranc F et al., Neurosurgery 2008) or in, e.g., the human A549 non-small-cell-lung cancer cell line, which is apoptosis-resistant and autophagy-resistant (Mijatovic T et al., Neoplasia 2006, May; 8(5):402-12).
[…] The experiments are conducted in quadruplicates.
The behaviour of the cells, in terms of morphology, growth and death are thus investigated. The effect on the overall growth is measured by counting the number of cells on the first (0 h) and the last image (72 h) of each film. The global growth ratio (GGR) is then deduced by dividing the number of cells on the last image by the number of cells on the first image. The ratio GGRtreated cells/GGRcontrol cells is further calculated thereby providing a value that describes the effect of compounds of the present invention on the overall cell growth.
The methodology is fully described and validated in Debeir et al., 2008, Exp Cell Res 314:2985-2998 and Mathieu et al., 2009, J Cell Mol Med, Feb. 20, 2009.

[3] = test system: OE21 oesophageal cancer cells; experiment: MTT test, overall cell growth, OE21; type: cell-based, human; conditions: Homo sapiens, OE21, 72 hours of incubation
Method: as §1, §2, §3, §4, §5, §6, §7

[4] = mean over the cancer cell lines, MTT test, read-out: IC50 Mean ± SEM
[5] = Glioma cell, MTT assay, submicromolar range, e.g. as low as, read-out: mean anti-proliferative effect on the glioma cell lines

IC50 (U373 glioma cells) | IC50 [1, 4] | IC50 (Hs683 glioma cells) | IC50 [2] | IC50 (T98G glioma cells) | IC50 [3] | IC50 [1, 5] | IC50 ([1]; Table 4, mean over cell lines, read-out: IC50 μM growth inhibition (MTT test)) | Compound | global growth ratio (GGR) (U373 cells) | Anti proliferative class (U373 cells)
600 ± 200 nM | 1.6 ± 0.4 µM | 2.2 ± 0.2 µM | 3000 ± 200 nM | 700 ± 200 nM | 1400 ± 300 nM |  |  | Cc1c2c(cc[n+]1Cc1ccccc1F)c1ccc(OCc3cccc(F)c3)cc1n2Cc1cccc(F)c1.[Br-] [CV19, 1-methyl-2-(2-fluorobenzyl)-7-(3-fluorobenzyl)oxy-9-(3-fluorobenzyl)-β-carbolin-2-ium bromide] | 0.2 | I (class I: actually cytostatic for 3 days (<10% of cell death at the 3rd day))
900 ± 100 nM | 2.7 ± 0.6 µM | 4.5 ± 0.4 µM | 3400 ± 100 nM | 1900 ± 300 nM | 2900 ± 100 nM |  |  | Cc1c2c(cc[n+]1Cc1ccc(F)cc1)c1ccc(OCc3cccc(F)c3)cc1n2Cc1cccc(F)c1.[Br-] [CV22, 1-methyl-2-(4-fluorobenzyl)-7-(3-fluorobenzyl)oxy-9-(3-fluorobenzyl)-β-carbolin-2-ium bromide] | 0.5 | I (class I: actually cytostatic for 3 days (<10% of cell death at the 3rd day))
430 ± 70 nM | 0.8 ± 0.2 µM | 0.9 ± 0.1 µM | 1400 ± 100 nM | 400 ± 40 nM | 500 ± 90 nM | 0.34 to 0.8 µM |  | Cc1c2c(cc[n+]1Cc1ccccc1)c1ccc(OCc3ccc(F)cc3)cc1n2Cc1ccc(F)cc1.[Br-] [CV23, 1-methyl-2-benzyl-7-(4-fluorobenzyl)oxy-9-(4-fluorobenzyl)-β-carbolin-2-ium bromide] | 0.3 | I (class I: actually cytostatic for 3 days (<10% of cell death at the 3rd day))
2900 ± 100 nM | 7 ± 3 µM | 13 ± 1 µM | 3100 ± 300 nM | 14000 ± 2000 nM | 3700 ± 200 nM |  |  | Cc1c2c(cc[n+]1Cc1ccc(F)cc1)c1ccc(OCc3ccc(F)cc3)cc1n2Cc1ccc(F)cc1.[Br-] [CV29, 1-methyl-2-(4-fluorobenzyl)-7-(4-fluorobenzyl)oxy-9-(4-fluorobenzyl)-β-carbolin-2-ium bromide] | 0.1 | IV (class IV: cytotoxic (>50% of cell death on the first day))
410 ± 30 nM | 1.1 ± 0.4 µM | 2.6 ± 0.2 µM | 300 ± 50 nM | 1700 ± 500 nM | 570 ± 80 nM |  |  | CCCn1c2cc(OCc3ccccc3)ccc2c2cc[n+](Cc3ccccc3)c(C)c21.[Br-] [CV34, 1-methyl-2-benzyl-7-benzyloxy-9-propyl-β-carbolin-2-ium bromide] | 0.3 | III
390 ± 10 nM | 0.7 ± 0.3 µM | 0.45 ± 0.02 µM | 250 ± 20 nM | 1800 ± 300 nM | 420 ± 20 nM |  |  | CCCn1c2cc(OCc3ccccc3)ccc2c2cc[n+](Cc3ccccc3F)c(C)c21.[Br-] [CV35, 1-methyl-2-(2-fluorobenzyl)-7-benzyloxy-9-propyl-β-carbolin-2-ium bromide] | 0.4 | I (class I: actually cytostatic for 3 days (<10% of cell death at the 3rd day))
880 ± 60 nM | 2.5 ± 0.9 µM | 3.1 ± 0.6 µM | 1000 ± 100 nM | 5700 ± 200 nM | 1900 ± 300 nM |  |  | CCCn1c2cc(OCc3ccccc3)ccc2c2cc[n+](Cc3ccc(F)cc3)c(C)c21.[Br-] [CV36, 1-methyl-2-(4-fluorobenzyl)-7-benzyloxy-9-propyl-β-carbolin-2-ium bromide] | 0.1 | IV (class IV: cytotoxic (>50% of cell death on the first day))

Continued, compound first:

Compound | IC50 (U373 glioma cells) | IC50 [1, 4] | IC50 (Hs683 glioma cells) | IC50 [2] | IC50 (T98G glioma cells) | IC50 [3] | IC50 [1, 5] | IC50 ([1]; Table 4, mean over cell lines, read-out: IC50 μM growth inhibition (MTT test)) | global growth ratio (GGR) (U373 cells) | Anti proliferative class (U373 cells)
Cc1c2c(cc[n+]1Cc1ccccc1)c1ccc(OCC3CCCCC3)cc1n2CC1CCCCC1.[Br-] [CV24, 1-methyl-2-benzyl-7-cyclohexylmethyloxy-9-cyclohexylmethyl-β-carbolin-2-ium bromide] | 370 ± 20 nM | 0.34 ± 0.05 µM | 0.38 ± 0.009 µM | 370 ± 10 nM | 160 ± 30 nM | 420 ± 8 nM | 0.34 to 0.8 µM | 0.34 µM | 0.3 | I (class I: actually cytostatic for 3 days (<10% of cell death at the 3rd day))
Cc1c2c(cc[n+]1Cc1ccccc1F)c1ccc(OCC3CCCCC3)cc1n2CC1CCCCC1.[Br-] [CV26, 1-methyl-2-(2-fluorobenzyl)-7-cyclohexylmethyloxy-9-cyclohexylmethyl-β-carbolin-2-ium bromide] | 1420 ± 80 nM | 0.5 ± 0.2 µM | 0.25 ± 0.02 µM | 350 ± 20 nM | 70 ± 8 nM | 350 ± 10 nM | 0.34 to 0.8 µM |  | 0.2 | I (class I: actually cytostatic for 3 days (<10% of cell death at the 3rd day))
Cc1nccc2c3ccc(O)cc3n(Cc3ccccc3)c12 [CV27, 1-methyl-7-hydroxy-9-benzyl-β-carboline] | 80000 ± 2000 nM | 62 ± 11 µM | 79 ± 4 µM | 35000 ± 2000 nM | 81000 ± 11000 nM | 35000 ± 2000 nM |  |  | 0.2 | II
Cc1c2c(cc[n+]1Cc1ccc(F)cc1)c1ccc(OCC3CCCCC3)cc1n2CC1CCCCC1.[Br-] [CV30, 1-methyl-2-(4-fluorobenzyl)-7-cyclohexylmethyloxy-9-cyclohexylmethyl-β-carbolin-2-ium bromide] | 40 ± 10 nM | 1.6 ± 0.4 µM | 3.1 ± 0.3 µM | 1000 ± 100 nM | 2000 ± 600 nM | 1400 ± 200 nM |  |  | 0.8 | I (class I: actually cytostatic for 3 days (<10% of cell death at the 3rd day))
CCCn1c2cc(OCc3ccccc3)ccc2c2ccnc(C)c21 [CV33, 1-methyl-7-benzyloxy-9-propyl-β-carboline] | 26000 ± 1000 nM | 21 ± 4 µM | 13 ± 1 µM | 9000 ± 1000 nM | 34000 ± 1000 nM | 23000 ± 2000 nM |  |  | 0.3 | III
Cc1nccc2c1[nH]c1cc(OCc3ccccc3)ccc12 [JR79, 1-methyl-7-benzyloxy-β-carboline] | 9300 ± 200 nM | 14 ± 3 µM | 17 ± 2 µM | 4100 ± 600 nM | 17000 ± 3000 nM | 21000 ± 1000 nM |  |  | 0.2 | III

Source: US9168247B2, “Beta carboline derivatives useful in the treatment of proliferative disorders” (FACULTES UNIVERSITAIRES NOTRE DAME DE LA PAIX, priority 2010, dated 2015)
